# Like-named read-outs stand apart in the source and are kept apart here.
# How the values were obtained:
# [1] = test system: LNCaP (androgen dependent) prostate tumor cells; assay: Growth inhibition of prostate tumor cells, modified MTT assay; type: cell-based
# Experimental: (§1) PC3 cells (filled circles) are hormone independent cells, whereas, LNCaP (opend circles) are hormone dependent cells. Y-axis indicates percentage of cell growth as measured by a modified MTT assay. X-axis in the concentration (mM) of Angeli's salt added every 24 hrs for a total of 72 hours.
# (§2) A characteristic feature of PC3 (androgen independent) and LNCaP (androgen dependent) prostate tumor cells is the overexpression of an intrinsic plasma membrane Na^+/K^+ pump regulatory protein, MAT-8. As described above, overexpression of MAT-8 is a property shared with breast, pancreatic and lung carcinomas. The growth inhibition of PC3 and LNCaP cells by nitroxyl (HNO) donated by Angeli's salt (AS) was investigated.
# (§3) PC3 (2500 cells/well) and LNCaP (4000 cells/well) cells were cultured in 200 μl of incubation media in each well of a 96-well assay plate 24 hours prior to the addition of AS. Following an overnight incubation at 37° C., appropriate AS concentrations were added to each well from a fresh stock solution of 0.5 M AS (Na2N2O3) in 10 mM NaOH (added to stabilize AS) diluted to 30 mM with cell culture medium. AS/HNO was added every 24 hours for a total of 72 hours. Cell viability was assayed using the MTT assay, a colorimetric method performed with minor modification according to the procedure of Mossman (1983) J. Immunol. Methods 65:55-63.
# [2] = test system: PC3 (androgen independent) prostate tumor cells; assay: as above; type: cell-based
# Experimental: as §1, §2, §3
# [3] = biological target: T1, SERCA2a (Canis lupus familiaris, UniProt O46674); assay: EGTA-induced dephosphorylation (E2P hydrolysis) in native cardiac SR vesicles, quenched-flow mixing; type: biochemical, dog; conditions: 0.25 mM AS, 24° C.
# T1 construct: native cardiac SR vesicles isolated from dog heart; from tissue; host or cells: dog heart, sarcoplasmic reticulum vesicles
# T1 sequence (P61012 whole entry partner): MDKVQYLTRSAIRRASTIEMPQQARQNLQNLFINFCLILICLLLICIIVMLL
# T1 sequence (O46674 whole entry): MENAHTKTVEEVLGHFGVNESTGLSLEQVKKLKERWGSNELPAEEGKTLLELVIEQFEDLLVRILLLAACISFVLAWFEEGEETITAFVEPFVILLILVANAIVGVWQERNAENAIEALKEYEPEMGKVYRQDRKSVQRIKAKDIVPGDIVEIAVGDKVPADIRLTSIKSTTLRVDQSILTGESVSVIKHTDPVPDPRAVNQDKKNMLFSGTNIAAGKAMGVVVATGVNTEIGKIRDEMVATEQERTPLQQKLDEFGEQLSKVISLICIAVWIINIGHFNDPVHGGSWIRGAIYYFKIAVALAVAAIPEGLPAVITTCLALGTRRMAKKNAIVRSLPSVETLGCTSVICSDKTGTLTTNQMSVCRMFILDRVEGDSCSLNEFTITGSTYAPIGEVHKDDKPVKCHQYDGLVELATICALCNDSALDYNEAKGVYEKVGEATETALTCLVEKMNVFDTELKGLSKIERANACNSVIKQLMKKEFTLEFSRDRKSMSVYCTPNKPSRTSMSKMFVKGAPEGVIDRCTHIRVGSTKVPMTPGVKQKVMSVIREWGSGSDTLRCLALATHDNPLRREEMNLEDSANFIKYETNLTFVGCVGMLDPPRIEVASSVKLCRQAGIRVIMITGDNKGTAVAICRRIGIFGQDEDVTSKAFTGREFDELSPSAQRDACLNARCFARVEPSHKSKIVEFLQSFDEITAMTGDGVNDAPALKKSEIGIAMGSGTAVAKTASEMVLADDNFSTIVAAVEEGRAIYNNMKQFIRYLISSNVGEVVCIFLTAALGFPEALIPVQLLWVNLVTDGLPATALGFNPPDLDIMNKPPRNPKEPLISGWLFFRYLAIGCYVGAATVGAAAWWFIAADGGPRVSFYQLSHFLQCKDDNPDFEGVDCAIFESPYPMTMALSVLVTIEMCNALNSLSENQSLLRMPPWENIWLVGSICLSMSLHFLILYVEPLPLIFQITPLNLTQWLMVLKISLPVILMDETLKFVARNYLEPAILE
# From the text: Y-axis indicates the level of E2P (nmol/mg), which undergoes hydrolysis in step 6 of FIG. 3. X-axis indicates time following addition of Angeli's salt (sec). The inset figure represents a normalized comparison of E2P hydrolysis in the presence (+AS) or absence (−AS) of Angeli's salt.
# Investigations of the mechanism of the cardiac muscle sarcoplasmic reticulum (SR) Ca^2+ pump (SERCA2a) have provided a paradigm for understanding how the interaction of nitroxyl with a regulatory protein (phospholamban) can activate the pump. SERCA2a is a P-type cation pump, i.e., it utilizes ATP as its energy source for uphill Ca^2+ transport and becomes phosphorylated by ATP during the catalytic cycle (FIG. 3). Regulation of its activity by the small intrinsic cardiac SR membrane protein, phospholamban (PLB), involves primarily steps 6 and 8 which are rate-limiting in the overall transport cycle and control Vmax (steps 6 and 8) and the affinity of the cytoplasmic Ca^2+ transport sites, Km (step 8). Mahaney et al. (2005) Biochemistry 44:7713-7724 and Antipenko et al. (1997) Biochemistry 36:12903-12910. […]
# SERCA2a was initially phosphorylated at the catalytic site using 10 μM [γ^32P]ATP and then subsequently dephosphorylated by chasing with 5 mM EGTA. […] In the absence of AS/HNO, E2P decay measured at 24° C. by quenched-flow mixing in dog cardiac SR is slow ([…]) and monophasic (FIG. 4).
# [4] = biological target: T2, SERCA2a + PLB (WT) (Canis lupus familiaris, UniProt O46674+P61012); assay: E2P hydrolysis in Sf21 ER microsomes after EGTA chase; type: biochemical
# T2 construct: made in house; host or cells: Sf21 insect cells (baculovirus), ER microsomes
# T2 sequence (P61012 whole entry): as the sequence (P61012 whole entry partner) above
# T2 sequence (O46674 whole entry): as the sequence (O46674 whole entry) above
# From the text: (§4) Nitroxyl (HNO) donated by Angeli's salt (AS) enhances intracellular Ca^2+ cycling in isolated cardiac myocytes by activating Ca^2+ release from ryanodine (RyR2) receptors and Ca^2+ re-uptake by the SR Ca^2+ pump. Tocchetti et al. (2007) Circ. Res. 100:96-104. In cardiac SR vesicles, activation of Ca^2+ uptake by HNO involves a direct interaction with the pump and is accompanied by enhanced dephosphorylation of the cardiac Ca^2+-ATPase isozyme, SERCA2a. To determine whether HNO interacts with SERCA2a or its regulatory protein, phospholamban (PLB) and to characterize the protein site(s) modified by HNO, activation of SERCA2a dephosphorylation by nitroxyl using SERCA2a and PLB (WT and mutant) expressed in Sf21 cell ER microsomes (baculovirus system) was investigated. Brief exposure of SERCA2a+WT PLB to 0.25 mM AS produced a 10-fold stimulation of dephosphorylation (0.5 s^−1→5 s^−1) following an EGTA chase (Table 2). […] Exposure to dithiothreitol (2 mM DTT) reversed the activation of dephosphorylation by nitroxyl, similar to its effect on HNO-induced activation of Ca^2+ release from the RyR2 receptor. Tocchetti et al. (2007) Circ. Res. 100:96-104.
# [5] = biological target: T3, SERCA2a + PLB (−C) (Homo sapiens, UniProt P16615+P26678, C36A/C41A/C46A); assay: as above; type: biochemical
# T3 construct: made in house; host or cells: Sf21 insect cells (baculovirus), ER microsomes
# T3 sequence (P16615 1-997 isoform P16615-2, stated change not applied): as the sequence (O46674 whole entry) above, with S376T, K403N, P538S, V544I, N576H, S661N, S713A, D877E, L963V counted along it
# T3 sequence (P26678 whole entry C36A/C41A/C46A): as the sequence (P61012 whole entry partner) above, with D2E, N27K, C36A, C41A, C46A counted along it
# From the text: as §4
# [6] = test system: SERCA2a alone; assay: as above; type: biochemical; conditions: 0.25 mM AS
# From the text: as §4
# [7] = biological target: T4, SR Ca^2+ pump (SERCA2a) (Mus musculus, UniProt O55143); conditions: brief exposure to AS (0.25 mM); SR vesicles from mouse heart; cited from earlier work
# T4 construct: Using SR vesicles prepared from mouse heart; host or cells: mouse heart SR vesicles
# T4 sequence (P61014 whole entry partner): as the sequence (P61012 whole entry partner) above, with D2E counted along it
# T4 sequence (O55143 1-998 isoform O55143-2): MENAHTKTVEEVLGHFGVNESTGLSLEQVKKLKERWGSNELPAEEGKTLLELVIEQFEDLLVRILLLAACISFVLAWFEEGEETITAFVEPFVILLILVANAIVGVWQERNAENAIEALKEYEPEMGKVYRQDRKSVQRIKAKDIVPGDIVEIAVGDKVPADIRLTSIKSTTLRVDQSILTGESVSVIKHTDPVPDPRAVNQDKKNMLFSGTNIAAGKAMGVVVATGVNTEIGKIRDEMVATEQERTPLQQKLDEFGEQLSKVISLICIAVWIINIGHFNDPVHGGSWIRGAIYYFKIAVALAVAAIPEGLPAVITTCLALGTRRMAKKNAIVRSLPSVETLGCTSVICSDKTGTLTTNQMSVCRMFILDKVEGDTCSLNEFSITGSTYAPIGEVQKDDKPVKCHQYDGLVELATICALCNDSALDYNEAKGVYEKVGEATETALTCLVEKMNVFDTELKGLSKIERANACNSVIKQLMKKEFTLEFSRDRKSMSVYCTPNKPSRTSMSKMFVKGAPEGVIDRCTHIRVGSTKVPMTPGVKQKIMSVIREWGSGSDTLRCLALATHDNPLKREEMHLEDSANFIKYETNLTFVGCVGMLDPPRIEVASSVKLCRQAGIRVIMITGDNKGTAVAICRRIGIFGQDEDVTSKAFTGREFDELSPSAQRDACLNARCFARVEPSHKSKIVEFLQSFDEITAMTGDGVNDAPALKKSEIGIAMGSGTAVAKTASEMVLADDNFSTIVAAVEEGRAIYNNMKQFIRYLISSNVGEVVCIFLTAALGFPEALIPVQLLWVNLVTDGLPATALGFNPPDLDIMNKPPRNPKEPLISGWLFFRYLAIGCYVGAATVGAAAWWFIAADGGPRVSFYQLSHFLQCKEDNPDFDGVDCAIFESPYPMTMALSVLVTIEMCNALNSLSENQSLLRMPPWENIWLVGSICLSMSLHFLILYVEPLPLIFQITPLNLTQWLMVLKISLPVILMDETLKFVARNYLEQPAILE
# [8] = cited from earlier work
# [9] = test system: cells; conditions: cited from earlier work
# [10] = AS added every 24 h for 72 h, read-out: Experiment 2 (EC50)
# [11] = AS added every 24 h for 72 h, read-out: Experiment 3 (EC50)
# [12] = mean of 3 independent experiments, read-out: Mean EC50
# [13] = range given for both cell lines, read-out: EC50 growth inhibition over a series of three separate experiments
structure (smiles),measurement,setting,value
[Na+].[Na+].[O-][N+]([O-])=NO [Angeli's salt],EC50,"[1]; AS added every 24 h for 72 h, read-out: Experiment 1 (EC50)",3 mM
same,EC50,[1]; [10],0.9 mM
same,EC50,[1]; [11],1.2 mM
same,EC50,[1]; [12],1.7 mM
same,EC50,"[1]; mean of experiments 2 and 3 only (experiment 1 left out), read-out: Mean EC50",1.05 mM
same,EC50,[1]; [13],1 to 1.7 mM
same,EC50,"[2]; AS added every 24 h for 72 h, 50% growth inhibition, read-out: Experiment 1 (EC50)",1.4 mM
same,EC50,[2]; [10],0.7 mM
same,EC50,[2]; [11],1.4 mM
same,EC50,[2]; [12],1.17 mM
same,EC50,[2]; [13],1 to 1.7 mM
same,"E2P decay, accelerated initial decay phase",[3]; without AS 11 s^−1,77 s⁻¹
same,E2P decay pattern,[3]; without AS monophasic,biphasic decay pattern
same,A1 (%) amplitude fast phase,"[4]; 0.25 mM AS, 0° C.",11%
same,A2 (%) amplitude slow phase,"[4]; 0.25 mM AS, 0° C.",89%
same,k1,"[4]; 0.25 mM AS, 0° C.",5.00 s⁻¹
same,k2,"[4]; 0.25 mM AS, 0° C.",0.154 s⁻¹
same,dephosphorylation rate,"[4]; 0.25 mM AS, EGTA chase, from 0.5 s^−1 without AS",5 s⁻¹
same,stimulation of dephosphorylation,"[4]; brief exposure to 0.25 mM AS, EGTA chase",10 fold
same,A1 (%) amplitude fast phase,"[5]; 0.25 mM AS, 0° C.",100%
same,k1,"[5]; 0.25 mM AS, 0° C.",0.18 s⁻¹
same,stimulation of dephosphorylation by nitroxyl,"[5]; mutant PLB, all 3 transmembrane cysteines Cys→Ala",no stimulation
same,A1 (%) amplitude fast phase,[6]; 0° C.,23%
same,A2 (%) amplitude slow phase,[6]; 0° C.,77%
same,k1,[6]; 0° C.,4.64 s⁻¹
same,k2,[6]; 0° C.,0.174 s⁻¹
same,stimulation of dephosphorylation,[6]; microsomes expressing SERCA2a alone,No additional stimulation
same,effect on Ca^2+ uptake,[7],activates Ca^2+uptake
same,water solubility,[8],highly water soluble
same,cell permeation,[9],rapidly permeates cells

# — patent US20090280194A1, “USE OF NITROXYL (HNO) FOR THE TREATMENT OF CANCERS OVEREXPRESSING MAT-8” (priority 2008, published 2009)
